{
  "source": "ChEMBL document CHEMBL1201862",
  "about": "“PubChem BioAssay data set” (2004)",
  "assay_type_in_all_cases": "functional",
  "key": {"[1]": {"biological_target": "Glucose-6-phosphate 1-dehydrogenase (Homo sapiens, UniProt P11413)", "sequence (P11413 whole entry)": "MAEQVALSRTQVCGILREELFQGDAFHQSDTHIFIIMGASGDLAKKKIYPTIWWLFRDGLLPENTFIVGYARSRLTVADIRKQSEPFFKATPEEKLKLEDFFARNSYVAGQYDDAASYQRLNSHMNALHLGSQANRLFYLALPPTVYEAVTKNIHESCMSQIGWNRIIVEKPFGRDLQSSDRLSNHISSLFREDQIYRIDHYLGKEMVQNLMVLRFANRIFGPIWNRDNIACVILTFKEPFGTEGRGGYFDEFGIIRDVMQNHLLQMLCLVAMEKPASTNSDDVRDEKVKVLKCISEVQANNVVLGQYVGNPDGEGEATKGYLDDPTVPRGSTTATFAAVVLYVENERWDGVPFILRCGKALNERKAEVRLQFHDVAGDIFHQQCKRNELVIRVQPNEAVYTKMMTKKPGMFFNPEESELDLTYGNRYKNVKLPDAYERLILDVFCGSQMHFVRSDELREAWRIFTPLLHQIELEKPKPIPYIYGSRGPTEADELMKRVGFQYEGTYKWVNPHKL", "assay": "inhibition of Homo sapiens G6PD, dose series – biochemical, fluorescence, selectivity assay for P. falciparum G6PD inhibitor project, dose response (AID 504792)"}, "[2]": {"biological_target": "Delta-type opioid receptor (Homo sapiens, UniProt P41143)", "sequence (P41143 whole entry)": "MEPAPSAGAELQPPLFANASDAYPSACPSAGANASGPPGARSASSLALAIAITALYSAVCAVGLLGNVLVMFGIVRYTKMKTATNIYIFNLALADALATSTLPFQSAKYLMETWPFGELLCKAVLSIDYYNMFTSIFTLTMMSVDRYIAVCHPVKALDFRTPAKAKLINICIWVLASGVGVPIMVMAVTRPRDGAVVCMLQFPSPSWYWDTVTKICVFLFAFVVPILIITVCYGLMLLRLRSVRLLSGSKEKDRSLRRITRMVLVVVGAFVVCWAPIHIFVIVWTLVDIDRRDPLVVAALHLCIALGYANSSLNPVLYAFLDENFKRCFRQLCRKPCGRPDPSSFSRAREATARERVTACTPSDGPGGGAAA", "assay": "Counterscreen for agonists of heterodimerization of the mu 1 (OPRM1) and delta 1 (OPRD1) opioid receptors: Luminescence-based cell-based high throughput dose response assay to identify agonists of OPRD1 homodimerization. [Related pubchem assays (depositor defined):AID504326, AID504355, AID504692, AID504904, AID504905]"}, "Mu-type opioid receptor": {"biological_target": "Mu-type opioid receptor (Homo sapiens, UniProt P35372)", "sequence (P35372 whole entry)": "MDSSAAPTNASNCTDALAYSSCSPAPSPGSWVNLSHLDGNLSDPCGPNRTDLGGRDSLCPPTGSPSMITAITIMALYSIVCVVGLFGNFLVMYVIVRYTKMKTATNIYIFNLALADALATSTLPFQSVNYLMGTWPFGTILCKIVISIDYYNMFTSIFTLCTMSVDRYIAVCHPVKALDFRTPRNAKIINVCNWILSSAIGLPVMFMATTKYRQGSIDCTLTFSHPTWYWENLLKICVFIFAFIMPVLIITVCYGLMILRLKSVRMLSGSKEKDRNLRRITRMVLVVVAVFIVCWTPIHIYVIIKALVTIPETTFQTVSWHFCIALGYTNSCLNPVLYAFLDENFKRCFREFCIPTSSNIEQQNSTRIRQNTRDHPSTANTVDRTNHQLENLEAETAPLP", "assay": "Counterscreen for agonists of heterodimerization of the mu 1 (OPRM1) and delta 1 (OPRD1) opioid receptors: Luminescence-based cell-based high throughput dose response assay to identify agonists of OPRM1 homodimerization."}, "[3]": {"biological_target": "5-hydroxytryptamine receptor 5A (Homo sapiens, UniProt P47898)", "sequence (P47898 whole entry)": "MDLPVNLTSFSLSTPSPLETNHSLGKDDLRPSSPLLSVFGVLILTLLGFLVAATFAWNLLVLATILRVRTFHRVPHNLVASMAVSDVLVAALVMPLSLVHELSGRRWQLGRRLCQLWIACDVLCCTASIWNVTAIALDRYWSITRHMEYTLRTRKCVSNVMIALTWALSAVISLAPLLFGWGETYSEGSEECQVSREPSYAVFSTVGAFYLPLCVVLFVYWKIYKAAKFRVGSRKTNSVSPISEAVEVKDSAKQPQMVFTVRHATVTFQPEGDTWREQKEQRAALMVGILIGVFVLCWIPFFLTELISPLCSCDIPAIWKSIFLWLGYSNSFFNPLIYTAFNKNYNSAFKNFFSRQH", "assay": "Counterscreen for agonists of OPRM1-OPRD1 heterodimerization: luminescence-based cell-based high throughput dose response assay to identify agonists of 5-hydroxytryptamine (serotonin) 5A receptor (HTR5A). [Related pubchem assays (depositor defined):AID504326, AID504355, AID504692, AID504904, AID504905]"}, "[4]": {"biological_target": "T1, Heat shock factor protein 1 (Mus musculus, UniProt P38532)", "T1 sequence (P38532 whole entry)": "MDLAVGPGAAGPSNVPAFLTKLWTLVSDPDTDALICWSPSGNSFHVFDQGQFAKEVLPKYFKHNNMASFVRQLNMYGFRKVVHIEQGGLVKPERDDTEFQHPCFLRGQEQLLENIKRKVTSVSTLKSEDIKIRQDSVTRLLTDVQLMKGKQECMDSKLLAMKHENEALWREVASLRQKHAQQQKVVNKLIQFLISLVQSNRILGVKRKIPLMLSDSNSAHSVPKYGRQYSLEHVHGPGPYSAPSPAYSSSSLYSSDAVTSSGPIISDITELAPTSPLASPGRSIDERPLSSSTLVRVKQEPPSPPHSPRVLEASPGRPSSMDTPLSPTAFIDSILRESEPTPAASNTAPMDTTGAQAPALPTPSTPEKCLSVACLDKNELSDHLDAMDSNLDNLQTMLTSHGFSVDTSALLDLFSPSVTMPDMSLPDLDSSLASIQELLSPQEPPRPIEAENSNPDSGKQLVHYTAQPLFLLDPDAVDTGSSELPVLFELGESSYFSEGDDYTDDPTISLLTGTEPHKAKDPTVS", "assay": "decrease of HSF1-responsive luciferase luminescence – cell-based, NIH3T3, dose retest, confirmation (AID 2382);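 also: NIH3T3 fibroblasts with HSF1-driven luciferase reporter stressed by proteasome inhibitor MG132; luminescence from HSF1-driven luciferase expression after 8 hours of MG132 stress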"}, "H4": {"test_system": "H4", "assay": "Luminescence Cell-Based Dose Response HTS to Identify Activators of 5'UTR Stem-Loop Driven Prion Protein mRNA Translation in H4 Neuroglioblastoma Cells. [Related pubchem assays: 1829 (Project Summary), 1814 (Primary HTS)]", "conditions": "Homo sapiens"}, "HeLa": {"test_system": "HeLa", "assay": "ATP-based viability loss in HeLa cells – cell-based, CellTiter-Glo luminescence, cherry-pick samples, cytotoxicity control for MITF activator project, dose response (AID 540259)", "conditions": "Homo sapiens"}},
  "note": "Active and inactive are the calls of the source.",
  "data": [
    {"smiles": "O=C(COC(=O)c1cnccn1)c1ccc([N+](=O)[O-])cc1", "values": [
      {"measurement": "IC50", "setting": "[1]", "value": "> 80 µM (inactive)"}
    ]},
    {"smiles": "Cc1cc(/C=C2/C(=O)NN(c3ccccc3)C2=O)c(C)n1-c1ccc(O)cc1", "values": [
      {"measurement": "EC50", "setting": "[2]", "value": "9.3 µM (active)"},
      {"measurement": "EC50", "setting": "Mu-type opioid receptor", "value": "> 92.5 µM (inactive)"},
      {"measurement": "EC50", "setting": "[3]", "value": "> 92.5 µM (inactive)"},
      {"measurement": "EC50", "setting": "[4]", "value": "4.81 µM (active)"},
      {"measurement": "EC50", "setting": "H4", "value": "< 0.1 µM (active)"}
    ]},
    {"smiles": "Cc1nn2cc(-c3ccc(Cl)cc3)cnc2c1Cl", "values": [
      {"measurement": "AC50", "setting": "HeLa", "value": "108 µM (active)"}
    ]},
    {"smiles": "COc1ccc(CN(C)S(=O)(=O)c2nnc(NC(=O)c3cccc(C)c3)s2)cc1OC", "values": [
      {"measurement": "IC50", "setting": "[1]", "value": "61.2 µM (inactive)"}
    ]}
  ]
}
